ChEMBL document CHEMBL1201862, “PubChem BioAssay data set” (2004)
The source made the active and inactive calls.

Key:
Steroidogenic factor 1 = Steroidogenic factor 1 (Homo sapiens, UniProt Q13285); assay: Counterscreen for inverse agonists of the liver receptor homolog-1 (LRH-1; NR5A2): Luminescence-based cell-based high throughput dose response assay to identify inverse agonists of the Steroidogenic Factor 1 Nuclear Receptor (SF1; NR5A1).; type: functional
[1] = biological target: Nuclear receptor subfamily 5 group A member 2 (Homo sapiens, UniProt O00482); type: functional, cell-based;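 note: HEK293T cells transfected with LRH-1 and a StAR promoter luciferase reporter; potency for inhibitors that lower LRH-1 driven reporter light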
[2] = nonselective StAR promoter luciferase inhibitors – cell-based, luminescence, luciferase reporter, counter-screen for LRH-1 inverse agonist project, dose response (AID 651969); type: functional
[3] = reduction of Shn3 3'UTR-driven luciferase in osteoblasts – cell-based, Clone20 osteoblasts, firefly luciferase, cherry-picked, dose response (AID 624132); type: functional;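 note: firefly luciferase luminescence from reporter carrying the Shn3 3'UTR in osteoblasts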
Protein Wnt-3a = Protein Wnt-3a (Mus musculus, UniProt P27467); assay: antagonism of Wnt3a pathway luciferase reporter – Wnt-LIGHT cells, luminescence, selectivity assay for Gli-SUFU antagonist project, dose response (AID 651570); type: functional; details: read-out: IC50_Mean;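 note: Wnt-LIGHT reporter cells stimulated with conditioned medium from Wnt3a-producing cells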
[4] = non-specific 3'UTR reporter inhibition in Clone20-Shn3RL – cell-based, Renilla luciferase, cherry-picked, counter-screen for Shn3 inhibitor project, dose response (AID 624133); type: functional
INS1 = assay: INS-1E survival protection against cytokine death – cell-based, luminescence, retest, dose response (AID 449756); type: functional; details: Rattus norvegicus;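 note: cell death triggered by IL-1 beta plus TNF-alpha plus IFN-gamma mixture; protective hits raise ATP signal compared with cytokine alone wells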
[5] = loss of viability in HepG2 cells – cell-based, CellTiter-Glo, cherry-picked, cytotoxicity control for Shn3 inhibitor project, dose response (AID 624134); type: functional
[6] = biological target: T1, Sentrin-specific protease 7 (Homo sapiens, UniProt Q9BQF6); type: functional;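 note: Luminescence-based dose-response confirmation of ultra-high-throughput screening hits, measuring inhibition of SENP7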
T1 sequence (Q9BQF6 whole entry): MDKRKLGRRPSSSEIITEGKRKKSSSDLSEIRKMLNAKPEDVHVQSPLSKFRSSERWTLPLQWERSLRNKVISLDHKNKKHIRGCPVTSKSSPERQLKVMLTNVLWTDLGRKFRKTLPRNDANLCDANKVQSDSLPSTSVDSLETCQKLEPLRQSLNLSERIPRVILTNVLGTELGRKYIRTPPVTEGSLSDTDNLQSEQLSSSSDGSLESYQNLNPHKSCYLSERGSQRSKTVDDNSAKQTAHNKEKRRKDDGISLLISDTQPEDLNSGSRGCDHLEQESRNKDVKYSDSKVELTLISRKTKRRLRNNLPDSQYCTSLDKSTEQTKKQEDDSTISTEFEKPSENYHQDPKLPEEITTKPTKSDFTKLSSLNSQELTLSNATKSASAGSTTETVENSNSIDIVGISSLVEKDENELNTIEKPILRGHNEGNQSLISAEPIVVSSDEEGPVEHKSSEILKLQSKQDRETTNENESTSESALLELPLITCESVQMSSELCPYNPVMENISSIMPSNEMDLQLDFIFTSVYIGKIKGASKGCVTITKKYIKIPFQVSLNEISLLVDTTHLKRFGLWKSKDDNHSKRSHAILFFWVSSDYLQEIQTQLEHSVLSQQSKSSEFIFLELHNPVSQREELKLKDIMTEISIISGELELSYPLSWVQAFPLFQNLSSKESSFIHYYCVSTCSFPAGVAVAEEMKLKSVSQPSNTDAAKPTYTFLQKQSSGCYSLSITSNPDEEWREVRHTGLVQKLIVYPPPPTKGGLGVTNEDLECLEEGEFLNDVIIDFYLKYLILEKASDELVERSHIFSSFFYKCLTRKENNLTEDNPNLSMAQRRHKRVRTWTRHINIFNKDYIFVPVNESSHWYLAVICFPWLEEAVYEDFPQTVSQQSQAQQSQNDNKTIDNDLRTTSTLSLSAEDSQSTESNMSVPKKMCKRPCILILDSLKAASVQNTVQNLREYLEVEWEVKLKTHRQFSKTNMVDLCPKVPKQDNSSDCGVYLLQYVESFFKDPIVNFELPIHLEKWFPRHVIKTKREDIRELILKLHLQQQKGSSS

[7] = biological target: T2, Sentrin-specific protease 6 (Homo sapiens, UniProt Q9GZR1); type: functional;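 note: Luminescence-based dose-response confirmatory assay of SENP6 inhibition, following up an ultra-high-throughput screen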
T2 sequence (Q9GZR1 whole entry): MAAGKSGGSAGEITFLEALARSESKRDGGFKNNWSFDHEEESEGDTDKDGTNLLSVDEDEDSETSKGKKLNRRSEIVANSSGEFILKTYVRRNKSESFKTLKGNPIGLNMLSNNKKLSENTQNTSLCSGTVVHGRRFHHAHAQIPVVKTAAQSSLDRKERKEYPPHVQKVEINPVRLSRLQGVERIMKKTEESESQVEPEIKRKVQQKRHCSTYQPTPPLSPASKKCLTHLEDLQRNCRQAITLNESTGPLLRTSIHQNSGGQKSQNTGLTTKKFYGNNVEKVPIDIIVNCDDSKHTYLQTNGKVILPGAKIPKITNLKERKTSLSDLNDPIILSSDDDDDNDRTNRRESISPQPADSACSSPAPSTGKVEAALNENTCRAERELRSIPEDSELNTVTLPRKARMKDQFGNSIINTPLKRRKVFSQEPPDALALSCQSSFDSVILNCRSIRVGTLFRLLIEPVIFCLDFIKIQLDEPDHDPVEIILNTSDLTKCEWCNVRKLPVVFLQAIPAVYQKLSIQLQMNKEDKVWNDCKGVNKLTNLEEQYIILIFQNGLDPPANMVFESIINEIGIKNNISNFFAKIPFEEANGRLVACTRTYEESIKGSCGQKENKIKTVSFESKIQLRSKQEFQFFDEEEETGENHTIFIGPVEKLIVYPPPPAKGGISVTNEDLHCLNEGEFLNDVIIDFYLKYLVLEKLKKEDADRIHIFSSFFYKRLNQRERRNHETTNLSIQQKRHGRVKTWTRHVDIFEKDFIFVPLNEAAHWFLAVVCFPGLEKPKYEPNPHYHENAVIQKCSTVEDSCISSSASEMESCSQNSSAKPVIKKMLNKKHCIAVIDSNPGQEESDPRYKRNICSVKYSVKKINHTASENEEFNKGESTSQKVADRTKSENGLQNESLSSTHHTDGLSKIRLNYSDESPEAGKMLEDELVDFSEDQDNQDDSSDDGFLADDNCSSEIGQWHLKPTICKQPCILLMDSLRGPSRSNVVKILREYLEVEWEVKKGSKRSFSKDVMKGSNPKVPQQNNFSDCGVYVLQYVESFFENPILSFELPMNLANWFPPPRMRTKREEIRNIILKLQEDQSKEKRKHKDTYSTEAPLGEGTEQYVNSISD

Caspase-3 = biological target: T3, Caspase-3 (Homo sapiens, UniProt P42574); type: functional;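 note: Dose-response selectivity test against caspase-3 for candidate inhibitors of sentrin-specific proteases (SENPs)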
T3 sequence (P42574 whole entry): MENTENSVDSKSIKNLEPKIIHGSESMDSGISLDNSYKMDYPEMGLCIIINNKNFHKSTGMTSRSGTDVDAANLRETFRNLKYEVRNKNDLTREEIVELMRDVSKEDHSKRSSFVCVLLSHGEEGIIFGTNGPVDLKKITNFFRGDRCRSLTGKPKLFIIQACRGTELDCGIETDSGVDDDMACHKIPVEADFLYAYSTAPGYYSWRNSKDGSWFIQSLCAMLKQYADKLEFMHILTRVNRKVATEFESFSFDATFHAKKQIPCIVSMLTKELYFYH

[8] = biological target: T4, Sentrin-specific protease 8 (Homo sapiens, UniProt Q96LD8); type: functional;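 note: luminescence read-out of SENP8 inhibition, dose-response confirmation following an ultra-high-throughput screen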
T4 sequence (Q96LD8 whole entry): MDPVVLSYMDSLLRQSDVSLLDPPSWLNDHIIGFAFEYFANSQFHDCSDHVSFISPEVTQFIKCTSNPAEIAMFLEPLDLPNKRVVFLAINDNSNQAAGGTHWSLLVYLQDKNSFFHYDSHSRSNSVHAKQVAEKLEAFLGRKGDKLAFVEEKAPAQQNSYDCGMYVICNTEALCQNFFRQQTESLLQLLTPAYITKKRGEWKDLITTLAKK

[9] = biological target: Adenosylmethionine-8-amino-7-oxononanoate aminotransferase (Mycobacterium tuberculosis, UniProt P9WQ81); assay: Mycobacterium tuberculosis BioA enzyme inhibitor Measured in Biochemical System Using Plate Reader - 2163-02_Inhibitor_Dose_CherryPick_Activity.; type: functional, Mycobacterium tuberculosis UT205
[10] = biological target: Dual specificity protein phosphatase 3 (Homo sapiens, UniProt P51452); assay: VHR phosphatase inhibition, dose response, selectivity assay for STEP inhibitor project, biochemical (AID 602374); type: functional; details: read-out: IC50_Mean
[11] = biological target: Tyrosine-protein phosphatase non-receptor type 11 (Homo sapiens, UniProt Q06124); assay: PTPN11 enzyme inhibitors – biochemical, selectivity assay for STEP inhibitor project, dose response (AID 602367); type: functional; details: read-out: IC50_Mean
[12] = biological target: Tyrosine-protein phosphatase non-receptor type 5 (Homo sapiens, UniProt P54829); assay: PTPN5 enzyme inhibition – biochemical, fluorescence intensity, uHTS hits, confirmation (AID 602372); type: functional; details: read-out: IC50_Mean
[13] = biological target: T5, Polyadenylate-binding protein 1 (Homo sapiens, UniProt P11940); assay: MLLE domain peptide-binding blockers, IC50 – biochemical, fluorescence polarization, FITC-PAM2 peptide, dose response (AID 602259); type: functional; details: read-out: IC50_Mean
[14] = biological target: T5, Polyadenylate-binding protein 1; assay: MLLE binding blockers, Cy5 peptide tracer – biochemical, fluorescence polarization, Cy5-PAM2 peptide, secondary, miRNA deadenylation inhibitor project, dose response (AID 602260); type: functional; details: read-out: IC50_Mean

T5 sequence (P11940 whole entry, the tested form may be a part): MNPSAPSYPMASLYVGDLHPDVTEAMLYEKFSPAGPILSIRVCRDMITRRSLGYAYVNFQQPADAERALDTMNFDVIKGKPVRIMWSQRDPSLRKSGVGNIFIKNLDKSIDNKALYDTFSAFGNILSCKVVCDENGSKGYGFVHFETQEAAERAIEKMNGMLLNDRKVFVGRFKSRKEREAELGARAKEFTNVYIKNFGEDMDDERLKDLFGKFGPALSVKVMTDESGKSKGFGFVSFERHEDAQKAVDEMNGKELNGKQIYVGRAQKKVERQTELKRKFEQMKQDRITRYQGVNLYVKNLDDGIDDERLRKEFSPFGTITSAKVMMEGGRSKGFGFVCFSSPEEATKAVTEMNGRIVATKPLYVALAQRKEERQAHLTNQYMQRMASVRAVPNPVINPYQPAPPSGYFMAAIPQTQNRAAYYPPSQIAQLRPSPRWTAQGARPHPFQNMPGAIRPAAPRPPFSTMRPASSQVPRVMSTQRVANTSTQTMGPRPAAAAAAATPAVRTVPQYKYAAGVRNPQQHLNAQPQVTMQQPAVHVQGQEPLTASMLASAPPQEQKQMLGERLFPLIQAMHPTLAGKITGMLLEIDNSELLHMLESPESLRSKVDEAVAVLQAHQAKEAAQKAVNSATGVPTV
Sequence of Tyrosine-protein phosphatase non-receptor type 5 (P54829 whole entry, the tested form may be a part): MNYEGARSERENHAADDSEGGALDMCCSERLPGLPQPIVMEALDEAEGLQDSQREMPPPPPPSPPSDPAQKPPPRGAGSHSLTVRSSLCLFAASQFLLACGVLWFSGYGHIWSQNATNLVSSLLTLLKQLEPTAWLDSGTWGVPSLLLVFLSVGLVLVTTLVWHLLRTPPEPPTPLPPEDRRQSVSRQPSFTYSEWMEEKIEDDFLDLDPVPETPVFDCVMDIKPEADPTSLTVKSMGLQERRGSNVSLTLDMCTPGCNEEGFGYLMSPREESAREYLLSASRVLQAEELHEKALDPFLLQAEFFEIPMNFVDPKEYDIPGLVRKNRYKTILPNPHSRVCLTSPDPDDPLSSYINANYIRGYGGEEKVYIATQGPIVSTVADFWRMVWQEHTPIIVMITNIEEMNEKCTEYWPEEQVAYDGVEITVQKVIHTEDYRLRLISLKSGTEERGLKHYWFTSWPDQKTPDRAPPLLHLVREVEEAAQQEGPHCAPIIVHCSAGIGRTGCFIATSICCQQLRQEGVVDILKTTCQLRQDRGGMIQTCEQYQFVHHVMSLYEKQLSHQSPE
Sequence of Steroidogenic factor 1 (Q13285 whole entry): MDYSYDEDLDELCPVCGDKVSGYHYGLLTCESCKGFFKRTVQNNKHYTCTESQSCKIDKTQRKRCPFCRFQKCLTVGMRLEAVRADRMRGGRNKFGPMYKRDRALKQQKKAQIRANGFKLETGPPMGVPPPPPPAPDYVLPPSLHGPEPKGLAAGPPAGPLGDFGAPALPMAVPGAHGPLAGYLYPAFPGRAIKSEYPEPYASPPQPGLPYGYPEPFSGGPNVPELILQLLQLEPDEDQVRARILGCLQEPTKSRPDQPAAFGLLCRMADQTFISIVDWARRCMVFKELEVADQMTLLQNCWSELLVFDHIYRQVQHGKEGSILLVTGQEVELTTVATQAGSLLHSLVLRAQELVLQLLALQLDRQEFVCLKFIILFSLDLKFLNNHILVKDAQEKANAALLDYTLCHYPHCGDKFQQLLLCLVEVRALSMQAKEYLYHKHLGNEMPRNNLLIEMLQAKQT
Sequence of Nuclear receptor subfamily 5 group A member 2 (O00482 whole entry): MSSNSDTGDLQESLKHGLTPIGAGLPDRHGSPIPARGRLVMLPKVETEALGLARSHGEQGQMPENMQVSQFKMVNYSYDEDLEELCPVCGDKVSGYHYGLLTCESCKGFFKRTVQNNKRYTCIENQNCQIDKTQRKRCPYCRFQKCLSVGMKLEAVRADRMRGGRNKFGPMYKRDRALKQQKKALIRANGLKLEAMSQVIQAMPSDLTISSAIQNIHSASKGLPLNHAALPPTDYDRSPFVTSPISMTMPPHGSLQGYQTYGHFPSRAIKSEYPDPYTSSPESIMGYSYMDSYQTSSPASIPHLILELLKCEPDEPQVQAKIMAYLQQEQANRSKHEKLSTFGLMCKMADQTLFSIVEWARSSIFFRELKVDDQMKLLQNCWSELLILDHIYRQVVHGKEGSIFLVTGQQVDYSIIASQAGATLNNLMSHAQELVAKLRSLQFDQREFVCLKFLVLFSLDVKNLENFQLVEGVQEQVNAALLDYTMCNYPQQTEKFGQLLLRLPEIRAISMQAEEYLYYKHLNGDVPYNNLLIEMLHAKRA
Sequence of Adenosylmethionine-8-amino-7-oxononanoate aminotransferase (P9WQ81 whole entry): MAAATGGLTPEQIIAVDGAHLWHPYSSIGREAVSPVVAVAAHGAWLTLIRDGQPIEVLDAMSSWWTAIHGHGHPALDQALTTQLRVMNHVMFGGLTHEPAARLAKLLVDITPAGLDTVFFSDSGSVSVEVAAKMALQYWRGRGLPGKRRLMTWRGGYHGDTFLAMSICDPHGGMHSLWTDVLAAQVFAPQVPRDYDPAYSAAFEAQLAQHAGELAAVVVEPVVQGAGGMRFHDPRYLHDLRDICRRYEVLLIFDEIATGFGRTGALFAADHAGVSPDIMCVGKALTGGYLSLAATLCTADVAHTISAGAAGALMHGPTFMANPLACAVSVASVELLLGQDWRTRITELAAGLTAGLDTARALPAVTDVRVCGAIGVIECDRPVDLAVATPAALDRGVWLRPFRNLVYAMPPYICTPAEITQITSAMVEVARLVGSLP
Sequence of Protein Wnt-3a (P27467 whole entry): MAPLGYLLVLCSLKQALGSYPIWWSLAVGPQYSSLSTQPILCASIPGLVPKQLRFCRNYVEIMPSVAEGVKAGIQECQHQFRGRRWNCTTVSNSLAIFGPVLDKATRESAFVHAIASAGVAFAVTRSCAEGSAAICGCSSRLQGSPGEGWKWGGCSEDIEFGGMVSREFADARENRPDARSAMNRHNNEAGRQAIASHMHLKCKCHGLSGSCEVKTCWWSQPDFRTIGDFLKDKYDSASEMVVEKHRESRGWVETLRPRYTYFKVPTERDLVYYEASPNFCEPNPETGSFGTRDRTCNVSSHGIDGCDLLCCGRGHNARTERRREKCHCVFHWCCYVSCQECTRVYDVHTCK
Sequence of Tyrosine-protein phosphatase non-receptor type 11 (Q06124 whole entry): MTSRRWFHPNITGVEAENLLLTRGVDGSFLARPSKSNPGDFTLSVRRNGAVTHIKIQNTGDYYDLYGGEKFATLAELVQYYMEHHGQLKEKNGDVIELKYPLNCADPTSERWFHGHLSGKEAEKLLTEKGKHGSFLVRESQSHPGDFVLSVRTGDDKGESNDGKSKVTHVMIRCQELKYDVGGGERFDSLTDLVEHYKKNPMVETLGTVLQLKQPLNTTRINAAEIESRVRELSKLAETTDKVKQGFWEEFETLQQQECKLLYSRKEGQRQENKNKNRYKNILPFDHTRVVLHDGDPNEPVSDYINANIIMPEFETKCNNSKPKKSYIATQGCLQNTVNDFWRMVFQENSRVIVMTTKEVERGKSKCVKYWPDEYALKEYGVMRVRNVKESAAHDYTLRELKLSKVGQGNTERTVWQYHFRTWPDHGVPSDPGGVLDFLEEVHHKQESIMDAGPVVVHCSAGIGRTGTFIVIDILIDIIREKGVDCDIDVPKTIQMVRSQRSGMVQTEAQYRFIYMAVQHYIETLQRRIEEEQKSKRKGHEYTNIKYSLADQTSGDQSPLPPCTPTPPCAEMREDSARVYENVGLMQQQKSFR
Sequence of Dual specificity protein phosphatase 3 (P51452 whole entry): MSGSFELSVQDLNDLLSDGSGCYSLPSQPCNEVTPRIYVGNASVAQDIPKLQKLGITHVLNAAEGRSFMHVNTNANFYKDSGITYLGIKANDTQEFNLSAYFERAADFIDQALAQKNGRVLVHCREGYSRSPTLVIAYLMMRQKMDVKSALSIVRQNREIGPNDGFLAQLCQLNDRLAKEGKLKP

## CCCNC(=O)c1sc2c(c1C(=O)Nc1ccccn1)CCCC2
Steroidogenic factor 1
  IC50: 8.39 µM (active)
[1]
  IC50: 14.5 µM (inactive)
[2]
  IC50: 35.9 µM (inactive)

## O=C(c1cc2sccc2n1Cc1ccc(F)cc1)N1CCN(c2nc3ccccc3s2)CC1
[3]
  AC50: 1.36 µM (active)
Protein Wnt-3a
  IC50: 5.49 µM (active)
[4]
  AC50: 1.71 µM (active)
INS1
  AC50: 3.42 µM (active)
[5]
  AC50: 3.48 µM (active)

## O=C(O)c1cccc(NC(=O)c2ccc(COc3ccc(Cl)cc3)cc2)c1
[6]
  IC50: 21.8 µM (active)
[7]
  IC50: 16.7 µM (active)
Caspase-3
  IC50: > 100 µM (inactive)
[8]
  IC50: 41 µM (active)

## CCOC(=O)C1(CCc2ccccc2)CCN(C(=O)CN2CCOC2=O)CC1
[9]
  AC50: 3.89 µM (active)

## S=C(NCCCN1CCOCC1)Nc1ccc(-c2nc3ccccc3[nH]2)cc1
[10]
  IC50: 3.03 µM (active)
[11]
  IC50: 3.45 µM (active)
[12]
  IC50: 56.7 µM (inactive)

## CCOC(S)=NC(=NS(C)(=O)=O)c1ccccc1
[13]
  IC50: > 66 µM (inactive)
[14]
  IC50: > 66 µM (inactive)
